Laboratory results reported in PubChem BioAssay AID1963831 (Molecular Pharmacology Branch, DTP, NCI, 2024).
pIC50: −log10 of the molar value.

System: 889142-216-R-J1-PDC complex spheroid viability
Experiment: Anticancer human tumor 889142-216-R-J1-PDC patient-derived bladder carcinoma cell line growth inhibition [POLQ]
Details: for pIC50: curve of first compound; for viability, T/C: stronger effect = lower value
In short: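 Complex spheroid viability model combining PDC tumour cells with endothelial (HUVEC) and MSC stromal cells. Novobiocin, ART-558 or RP6685 were tested singly and in combination with standard and investigational anticancer drugs. Each was titrated in half-log steps from near clinical Cmax, or from 10 microM where Cmax was unknown.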

[1] = second compound 0.0316 µM, first compound 0.0316 µM
[2] = second compound 0.0316 µM, first compound 0.1 µM
[3] = second compound 0.0316 µM, first compound 0.316 µM
[4] = second compound 0.0316 µM, first compound 1 µM
[5] = second compound 0.0316 µM, first compound 3.16 µM
[6] = second compound 0.0316 µM, first compound 10 µM
[7] = second compound 0.1 µM, first compound 0.0316 µM
[8] = second compound 0.1 µM, first compound 0.1 µM
[9] = second compound 0.1 µM, first compound 0.316 µM
[10] = second compound 0.1 µM, first compound 1 µM
[11] = second compound 0.1 µM, first compound 3.16 µM
[12] = second compound 0.1 µM, first compound 10 µM
[13] = second compound 0.316 µM, first compound 0.0316 µM
[14] = second compound 0.316 µM, first compound 0.1 µM
[15] = second compound 0.316 µM, first compound 0.316 µM
[16] = second compound 0.316 µM, first compound 1 µM
[17] = second compound 0.316 µM, first compound 3.16 µM
[18] = second compound 0.316 µM, first compound 10 µM
[19] = second compound 1 µM, first compound 0.0316 µM
[20] = second compound 1 µM, first compound 0.1 µM
[21] = second compound 1 µM, first compound 0.316 µM
[22] = second compound 1 µM, first compound 1 µM
[23] = second compound 1 µM, first compound 3.16 µM
[24] = second compound 1 µM, first compound 10 µM
[25] = second compound 3.16 µM, first compound 0.0316 µM
[26] = second compound 3.16 µM, first compound 0.1 µM
[27] = second compound 3.16 µM, first compound 0.316 µM
[28] = second compound 3.16 µM, first compound 1 µM
[29] = second compound 3.16 µM, first compound 3.16 µM
[30] = second compound 3.16 µM, first compound 10 µM
[31] = second compound 10 µM, first compound 0.0316 µM
[32] = second compound 10 µM, first compound 0.1 µM
[33] = second compound 10 µM, first compound 0.316 µM
[34] = second compound 10 µM, first compound 1 µM
[35] = second compound 10 µM, first compound 3.16 µM
[36] = second compound 10 µM, first compound 10 µM
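Further: spheroids exposed to compounds for seven days.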
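Wherever viability, T/C is given: 100% = DMSO vehicle control viability.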

Structure (SMILES): CC1COCCN1c1cc(C2(O)CC3CCC(C2)O3)c2cnn(-c3ccn[nH]3)c2n1 (centres undefined) + Cc1cccc(N(C)C(=O)C2C(O)CCN2c2nc(C)cc(C(F)(F)F)c2C#N)c1
- pIC50 (second compound 0.0316 µM): 6.88
- pIC50 (second compound 0.1 µM): 7.15
- pIC50 (second compound 0.316 µM): 6.88
- pIC50 (second compound 1 µM): 6.99
- pIC50 (second compound 3.16 µM): 7.01
- pIC50 (second compound 10 µM): 7.25
- viability, T/C [1]: 66.5%
- viability, T/C [2]: 48.2%
- viability, T/C [3]: 42.3%
- viability, T/C [4]: 34.2%
- viability, T/C [5]: 26.1%
- viability, T/C [6]: 14.6%
- viability, T/C [7]: 56.7%
- viability, T/C [8]: 48.1%
- viability, T/C [9]: 36.1%
- viability, T/C [10]: 29%
- viability, T/C [11]: 23.8%
- viability, T/C [12]: 15.2%
- viability, T/C [13]: 66.8%
- viability, T/C [14]: 49.5%
- viability, T/C [15]: 39.8%
- viability, T/C [16]: 34.5%
- viability, T/C [17]: 25.9%
- viability, T/C [18]: 12.4%
- viability, T/C [19]: 62.7%
- viability, T/C [20]: 48.4%
- viability, T/C [21]: 38.9%
- viability, T/C [22]: 31.2%
- viability, T/C [23]: 22.6%
- viability, T/C [24]: 12.4%
- viability, T/C [25]: 61.5%
- viability, T/C [26]: 47.9%
- viability, T/C [27]: 40%
- viability, T/C [28]: 30.6%
- viability, T/C [29]: 26.4%
- viability, T/C [30]: 13.7%
- viability, T/C [31]: 55.9%
- viability, T/C [32]: 43.6%
- viability, T/C [33]: 37.6%
- viability, T/C [34]: 29.5%
- viability, T/C [35]: 29.9%
- viability, T/C [36]: 13.3%

Structure (SMILES): O=C(Nc1ccc(O)c(NS(=O)(=O)c2ccc(F)cc2)c1)c1ccc(-c2ccccc2)cc1 + Cc1cccc(N(C)C(=O)C2C(O)CCN2c2nc(C)cc(C(F)(F)F)c2C#N)c1
- pIC50 (second compound 0.0316 µM): < 5.00
- pIC50 (second compound 0.1 µM): < 5.00
- pIC50 (second compound 0.316 µM): < 5.00
- pIC50 (second compound 1 µM): < 5.00
- pIC50 (second compound 3.16 µM): < 5.00
- pIC50 (second compound 10 µM): < 5.00
- viability, T/C [1]: 103%
- viability, T/C [2]: 106%
- viability, T/C [3]: 112%
- viability, T/C [4]: 134%
- viability, T/C [5]: 101%
- viability, T/C [6]: 85.1%
- viability, T/C [7]: 94.9%
- viability, T/C [8]: 121%
- viability, T/C [9]: 98.1%
- viability, T/C [10]: 127%
- viability, T/C [11]: 126%
- viability, T/C [12]: 86.4%
- viability, T/C [13]: 140%
- viability, T/C [14]: 93.2%
- viability, T/C [15]: 85.9%
- viability, T/C [16]: 120%
- viability, T/C [17]: 112%
- viability, T/C [18]: 80.2%
- viability, T/C [19]: 96.2%
- viability, T/C [20]: 96.7%
- viability, T/C [21]: 84%
- viability, T/C [22]: 97.5%
- viability, T/C [23]: 131%
- viability, T/C [24]: 70.4%
- viability, T/C [25]: 87.8%
- viability, T/C [26]: 123%
- viability, T/C [27]: 121%
- viability, T/C [28]: 107%
- viability, T/C [29]: 91.2%
- viability, T/C [30]: 77.6%
- viability, T/C [31]: 69.3%
- viability, T/C [32]: 98.9%
- viability, T/C [33]: 97%
- viability, T/C [34]: 89.6%
- viability, T/C [35]: 85.3%
- viability, T/C [36]: 69.4%
